Columns and labels:
bedstraw = assay: Test B pre/postemergence bedstraw; type: in vivo, Galium aparine; details: Postemergence
How it was run: (§1)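 Test chemicals in a non-phytotoxic solvent mixture with surfactant were sprayed preemergence onto planted seeds and postemergence onto plants 2 to 18 cm tall (1- to 4-leaf stage). After twelve to sixteen days in a greenhouse, injury was visually rated against untreated controls from 0 (no effect) to 10 (complete control).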

blackgrass = assay: Test B pre/postemergence blackgrass; type: in vivo, Alopecurus myosuroides
How it was run: as §1

surinam grass = assay: Test B pre/postemergence surinam grass; type: in vivo, Brachiaria decumbens
How it was run: as §1

cocklebur = assay: Test B pre/postemergence cocklebur; type: in vivo, Xanthium strumarium
How it was run: as §1

corn = assay: Test B pre/postemergence corn; type: in vivo, Zea mays
How it was run: as §1

crabgrass = assay: Test B pre/postemergence crabgrass; type: in vivo, Digitaria sanguinalis
How it was run: as §1

giant foxtail = assay: Test B pre/postemergence giant foxtail; type: in vivo, Setaria faberii
How it was run: as §1

pigweed = assay: Test B pre/postemergence pigweed; type: in vivo, Amaranthus retroflexus
How it was run: as §1

soybean = assay: Test B pre/postemergence soybean; type: in vivo, Glycine max
How it was run: as §1

sugar beet = assay: Test B pre/postemergence sugar beet; type: in vivo, Beta vulgaris
How it was run: as §1

velvetleaf = assay: Test B pre/postemergence velvetleaf; type: in vivo, Abutilon theophrasti
How it was run: as §1

wheat = assay: Test B pre/postemergence wheat; type: in vivo, Triticum aestivum
How it was run: as §1

wild oat = assay: Test B pre/postemergence wild oat; type: in vivo, Avena fatua
How it was run: as §1

purple nutsedge = assay: Test B pre/postemergence purple nutsedge; type: in vivo, Cyperus rotundus
How it was run: as §1

rice = assay: Test B flood test rice; type: in vivo, Oryza sativa
How it was run: (§2)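 Each value is a visual injury score relative to controls, with 10 meaning complete control and 0 no effect. Evaluation took place twelve to sixteen days after the 2-leaf-stage plants were treated and kept in the greenhouse.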

duck salad = assay: Test B flood test duck salad; type: in vivo, Heteranthera limosa
How it was run: as §2

[1] = Postemergence, Rate 250 g/ha, scale 0 to 10
[2] = Postemergence, Rate 500 g/ha, scale of 0 to 10 where 0 is no effect and 10 is complete control
[3] = Preemergence, Rate 62 g/ha, scale 0 to 10 (0 no effect, 10 complete control)
[4] = Preemergence, Rate 125 g/ha, scale of 0 to 10 where 0 is no effect and 10 is complete control
[5] = Preemergence, Rate 250 g/ha, scale 0 to 10, 0 is no effect, 10 is complete control
[6] = Preemergence, Rate 500 g/ha, scale 0 to 10, 0 is no effect, 10 is complete control
[7] = Rate 62 g/ha, Postemergence, scale 0 to 10, 0 no effect, 10 complete control
[8] = Rate 125 g/ha, Postemergence, scale 0 to 10, 0 is no effect, 10 is complete control
[9] = Postemergence block (flood test species), Rate 250 g/ha, scale 0 to 10
[10] = Postemergence section (flood test species), Rate 500 g/ha, scale of 0 to 10 where 0 is no effect and 10 is complete control
[11] = Rate 62 g/ha, Postemergence (flood test), scale 0 to 10, 0 no effect, 10 complete control
[12] = Rate 125 g/ha, Postemergence section (flood test species), scale 0 to 10, 0 is no effect, 10 is complete control

CC(C)N(C(=O)n1oc(=O)n(CCC#N)c1=O)c1ccccc1 [Compound 436]
9: Blackgrass plant response rating (blackgrass; [2]) | Blackgrass plant response rating (blackgrass; [6]) | Corn plant response rating (corn; [6]) | Crabgrass plant response rating (crabgrass; [2]) | Giant foxtail plant response rating (giant foxtail; [2])
8: B. signalgrass plant response rating (surinam grass; [2])
1: Crabgrass plant response rating (crabgrass; [1]) | Giant foxtail plant response rating (giant foxtail; [1])
5: Corn plant response rating (corn; [2]) | Sugarbeets plant response rating (sugar beet; [6]) | Wheat plant response rating (wheat; [6]) | Nutsedge plant response rating (purple nutsedge; [6])
7: Redroot pigweed plant response rating (pigweed; [2]) | Velvetleaf plant response rating (velvetleaf; [6]) | Wheat plant response rating (wheat; [2])
4: Soybean plant response rating (soybean; [2])
10: B. signalgrass plant response rating (surinam grass; [6]) | Crabgrass plant response rating (crabgrass; [6]) | Giant foxtail plant response rating (giant foxtail; [6]) | Redroot pigweed plant response rating (pigweed; [6]) | Wild oats plant response rating (wild oat; [6])
3: Velvetleaf plant response rating (velvetleaf; [2]) | Wild oats plant response rating (wild oat; [2]) | Nutsedge plant response rating (purple nutsedge; [2])
0: Bedstraw plant response rating (bedstraw; Rate 250 g/ha, scale 0 to 10) | Bedstraw plant response rating (bedstraw; Rate 62 g/ha, scale 0 to 10, 0 no effect, 10 complete control) | Bedstraw plant response rating (bedstraw; Rate 125 g/ha, scale 0 to 10, 0 is no effect, 10 is complete control) | Blackgrass plant response rating (blackgrass; [1]) | Plant response rating, Blackgrass (blackgrass; [3]) | Plant response rating, Blackgrass (blackgrass; [4]) | Blackgrass plant response rating (blackgrass; [5]) | Blackgrass plant response rating (blackgrass; [7]) | Blackgrass plant response rating (blackgrass; [8]) | B. signalgrass plant response rating (surinam grass; Postemergence, Rate 250 g/ha, scale 0 to 10, 0 no effect, 10 complete control) | Plant response rating, B. signalgrass (surinam grass; [3]) | Plant response rating, B. signalgrass (surinam grass; [4]) | B. signalgrass plant response rating (surinam grass; [5]) | B. signalgrass plant response rating (surinam grass; [7]) | B. signalgrass plant response rating (surinam grass; [8]) | Cocklebur plant response rating (cocklebur; [1]) | Cocklebur plant response rating (cocklebur; [2]) | Plant response rating, Cocklebur (cocklebur; [3]) | Plant response rating, Cocklebur (cocklebur; [4]) | Cocklebur plant response rating (cocklebur; [5]) | Cocklebur plant response rating (cocklebur; [6]) | Cocklebur plant response rating (cocklebur; [7]) | Cocklebur plant response rating (cocklebur; [8]) | Corn plant response rating (corn; [1]) | Plant response rating, Corn (corn; [3]) | Plant response rating, Corn (corn; [4]) | Corn plant response rating (corn; [5]) | Corn plant response rating (corn; [7]) | Corn plant response rating (corn; [8]) | Plant response rating, Crabgrass (crabgrass; [3]) | Plant response rating, Crabgrass (crabgrass; [4]) | Crabgrass plant response rating (crabgrass; [5]) | Crabgrass plant response rating (crabgrass; [7]) | Crabgrass plant response rating (crabgrass; [8]) | Plant response rating, Giant foxtail (giant foxtail; [3]) | Plant response rating, Giant foxtail (giant foxtail; [4]) | Giant foxtail plant response rating (giant foxtail; [5]) | Giant foxtail plant response rating (giant foxtail; [7]) | Giant foxtail plant response rating (giant foxtail; [8]) | Redroot pigweed plant response rating (pigweed; [1]) | Plant response rating, Redroot pigweed (pigweed; [3]) | Plant response rating, Redroot pigweed (pigweed; [4]) | Redroot pigweed plant response rating (pigweed; [5]) | Redroot pigweed plant response rating (pigweed; [7]) | Redroot pigweed plant response rating (pigweed; [8]) | Soybean plant response rating (soybean; [1]) | Plant response rating, Soybean (soybean; [3]) | Plant response rating, Soybean (soybean; [4]) | Soybean plant response rating (soybean; [5]) | Soybean plant response rating (soybean; [6]) | Soybean plant response rating (soybean; [7]) | Soybean plant response rating (soybean; [8]) | Sugarbeets plant response rating (sugar beet; [1]) | Sugarbeets plant response rating (sugar beet; [2]) | Plant response rating, Sugarbeets (sugar beet; [3]) | Plant response rating, Sugarbeets (sugar beet; [4]) | Sugarbeets plant response rating (sugar beet; [5]) | Sugarbeets plant response rating (sugar beet; [7]) | Sugarbeets plant response rating (sugar beet; [8]) | Velvetleaf plant response rating (velvetleaf; [1]) | Plant response rating, Velvetleaf (velvetleaf; [3]) | Plant response rating, Velvetleaf (velvetleaf; [4]) | Velvetleaf plant response rating (velvetleaf; [5]) | Velvetleaf plant response rating (velvetleaf; [7]) | Velvetleaf plant response rating (velvetleaf; [8]) | Wheat plant response rating (wheat; [1]) | Plant response rating, Wheat (wheat; [3]) | Plant response rating, Wheat (wheat; [4]) | Wheat plant response rating (wheat; [5]) | Wheat plant response rating (wheat; [7]) | Wheat plant response rating (wheat; [8]) | Wild oats plant response rating (wild oat; [1]) | Plant response rating, Wild oats (wild oat; [3]) | Plant response rating, Wild oats (wild oat; [4]) | Wild oats plant response rating (wild oat; [5]) | Wild oats plant response rating (wild oat; [7]) | Wild oats plant response rating (wild oat; [8]) | Nutsedge plant response rating (purple nutsedge; [1]) | Plant response rating, Nutsedge (purple nutsedge; [3]) | Plant response rating, Nutsedge (purple nutsedge; [4]) | Nutsedge plant response rating (purple nutsedge; [5]) | Nutsedge plant response rating (purple nutsedge; [7]) | Nutsedge plant response rating (purple nutsedge; [8]) | Rice plant response rating (rice; [9]) | Rice plant response rating (rice; [10]) | Rice plant response rating (rice; [11]) | Rice plant response rating (rice; [12]) | Ducksalad plant response rating (duck salad; [9]) | Ducksalad plant response rating (duck salad; [10]) | Ducksalad plant response rating (duck salad; [11]) | Ducksalad plant response rating (duck salad; [12])

Source: US6737383B1, “Herbicidal oxadiazolidines” (priority 1999, dated 2004)
